From patent US20260308158A1, “TARGETING RNAS ASSOCIATED WITH TAUOPATHIES WITH SMALL MOLECULES” (University of Florida Research Foundation, Incorporated, priority 2023, published 2026)

Experiments:
[1] = system: DDPAC MAPT exon 10 mini-gene luciferase reporter; experiment: Luciferase reporter assay of exon 10 splicing, DDPAC mini-gene in HeLa cells; assay type: cell-based
Description: Luciferase-reporter Assay to Study Exon 10 Alternative Splicing. The exon 10 mini-genes, both WT and DDPAC and mutant thereof, fused to firefly luciferase, have been previously described.^18 HeLa cells were seeded in 60 mm diameter dishes and incubated for 12-16 h to 70% confluency. They were then transfected with WT, WT+I17T, DDPAC, or DDPAC+I17T luciferase reporter minigenes using JetPrime (Polyplus Transfection) per the manufacturer's recommended protocol and incubated for 4 h. After transfection, the cells were collected by trypsinization and re-seeded in 96-well plates at 0.2×10^5 cells per well, followed by treatment of compounds after 4 h. Compound stocks prepared in DMSO were diluted in growth medium and added to cells with final DMSO concentration at 0.1% (v/v). After a 48 h treatment period, the cells were washed with 1× DPBS. Each well was added with a mixture of 10 μL WST-1 reagent and 90 μL of growth medium. After incubation at 37° C. for 45 min, absorbance was measured at 450 and 690 nm. A690 as background was subtracted from A450 to obtain A450′. After removal of WST-1/DMEM from wells, the cells were washed again with 1×DPBS and treated with 100 μL of One-Glo EX reagent (Promega, E8110) per well. The plate was incubated at room temperature for 20 min and the luminescence was measured with a […] plate reader (1000 ms integration time). The resulted luminescence was normalized to A450′.

WT SRE RNA = experiment: In vitro competitive Chem-CLIP (C-Chem-CLIP), WT SRE RNA; settings: 3 at 1.5 μM, read-out: IC50, competition of the binding of 3
Description: In Vitro Chemical Cross-linking and Isolation by Pull Down (Chem-CLIP) and Competitive Chem-CLIP (C-Chem-CLIP). Growth medium [Dulbecco's modified eagle medium (DMEM; corning, 10-013-CM) with 1× Glutagro (corning)] and 10% (v/v) fetal bovine serum (FBS; Sigma, 12003C) was inactivated by heating at 95° C. for 15 min and slowly cooling to room temperature. Approximately 10,000 counts of 32P 5′-end labeled tau WT, DDPAC, WT+I17T, or DDPAC+I17T RNA were folded in 10 μL growth medium by heating at 65° C. for 5 min and slowly cooling to room temperature. Chem-CLIP probe 3 or negative control probe 4 was then added into the folded RNA in a total volume of 20 μL, and the mixtures were incubated at 37° C. for 1 h. For C-Chem-CLIP, dilutions of competing compound 2 were incubated with RNA for 30 min before adding 3. […]
The Chem-CLIP probe 3 or control probe 4 was then clicked to disulfide biotin azide (2 μL of 10 mM solution prepared in DMSO solution per sample; Click Chemistry Tools, catalog no. 1168-10). […] The radioactive signal from bound RNAs (on the beads) and unbound RNAs (in the wash buffer) was measured by using a Beckman Coulter LS6500 Liquid Scintillation Counter as Rbound and Runbound. Enrichment was calculated as the percentage of radiolabeled RNA captured by beads calculated as Rbound/(Rbound+Runbound).

LAN5 transcriptome = experiment: RNA-seq transcriptome-wide selectivity in LAN5 cells; assay type: cell-based, human
Description: RNA-Seq. LAN5 cells in 12-well plate (~60% confluency) were treated with 2 (1.5 μM), 0.1% (v/v) DMSO (vehicle), 4R-to-3R tau ASO (0.5 μM), or scrambled ASO (0.5 μM) for 48 h. Total RNA was extracted using an RNeasy Mini Kit (Qiagen) per the manufacturer's protocol. Next, rRNA was depleted using NEBNext rRNA depletion modules (E6310L, New England Biosciences) and prepared with NEBNext Ultra II Dir RNA Lib Prep Kit (E7760S, New England Biosciences) according to the manufacturer's protocol. The prepared libraries were processed with NextSeq 500/550 High Output Kit v2.5 (Illumina, 20024907) per the manufacturer's protocol and then sequenced on a NextSeq 500. After sequencing, the BCL files were converted to FASTQ files using basemount/0.12.8.1516 and bcl2fastq/2.17.1.14.^33 The sequencing depth was over 82 million for each sample.
FastQC^34 and RSeQC^35 were used to determine the quality of reads and any overrepresentation of sequences. HISAT2^36 was used to map the reads to the reference human genome (hg19), and the output SAM files were converted to BAM files and sorted by index. Kallisto^37 and NCBI reference sequences (RefSeq)^38 were used for gene quantification to calculate transcripts per million (TPM). Differentially expressed genes were detected with Sleuth^39 and determined by a multiple test corrected p-value<0.05. Splicing event PSI values were quantitated using MISO.^40

[2] = Cell viability (WST-1), untransfected HeLa cells; assay type: cell-based; settings: human, hela cells, 12.5 μM, WST-1, read-out: reduction of viability of HeLa cells
Description: (§1) Cell Viability. Cells were treated with DMSO (vehicle) or compound 2 for 48 h at 37° C. After the removal of the DMSO or compound-containing growth medium, the cells were washed with 1×DPBS and incubated in growth medium containing 10% (v/v) WST-1 cell proliferation reagent (Roche) or CellTiter Fluor (Promega; per the manufacturer's recommend protocol) for 40 min. The absorbance of the solution was measured at 450 and 650 nm with a SpectraMax M5 plate reader (Molecular Devices) for cells treated with WST-1. The background signal at 650 nm was subtracted from the WST-1 signal at 450 nm for analysis. For cells treated with CellTiter Fluor, the fluorescence was measured with 390 nm excitation and 505 nm emission wavelengths. Cells treated with a compound were compared to vehicle treated cells to determine the effect of the compound on cell viability.

HeLa cells = experiment: Cell viability (WST-1), untransfected HeLa cells; assay type: cell-based; settings: up to 12.5 μM, 48 h
Description: as §1

COc1cc(N)ncc1CCCN(C)CCCn1cnc2c3ccccc3n(C)c2c1=O [Compound 2, 3-(3-((3-(6-amino-4-methoxypyridin-3-yl)propyl)(methyl)amino)propyl)-5-methyl-3,5-dihydro-4H-pyrimido[5,4-b]indol-4-one]
improvement in cellular luciferase reporter assay compared to 1 ([1]; 2 vs 1): at least 10 fold | exclusion of exon 10 among eight conjugates (reduction of luciferase activity) ([1]; DDPAC mini-gene, HeLa): excluded exon 10 to the greatest extent | IC50 ([1]; Homo sapiens, HeLa, DDPAC mini-gene, 48 h, read-out: IC50, inhibition of luciferase activity (exon 10 inclusion)): 0.6 ± 0.3 µM | IC50 (WT SRE RNA): ~2 µM | expression of MAPT gene (LAN5 transcriptome; 2 at 1.5 μM or ASO 0.5 μM): Neither 2 nor the ASO altered the expression of MAPT gene | alternative splicing of MAPT exons (exon 10) (LAN5 transcriptome; 2 at 1.5 μM or tau ASO 0.5 μM): only one significantly reduced | genes unchanged, percent (LAN5 transcriptome; 2 at 1.5 μM, 48 h): 99.73% | cytotoxicity at 48 h, 12.5 µM [2]: 17 ± 3% | effect on viability of HeLa cells (HeLa cells): No effect on the viability
